“Also recorded” adds a separate entry of the source.
Assays:
732 biochemicals = experiment: Global metabolomic profiling: number of biochemicals significantly changed; type: in vivo, human; settings: Day 42; for number of biochemicals significantly decreased / number of biochemicals significantly increased: of 732 biochemicals; for share of biochemicals significantly changed / number of biochemicals whose serum levels were significantly changed: of a total of 732 biochemicals; for number of biochemicals whose serum levels were significantly changed: p≦0.05
Excerpt: (§1) Blood samples were taken at 4 days and 6 weeks following treatment. Plasma samples were isolated from whole blood and used for global metabolomic profiling.
(§2) At the time of analysis, samples were thawed and extracts prepared according to a standard protocol, which is designed to remove protein, dislodge small molecules bound to protein or physically trapped in the precipitated protein matrix, and recover a wide range of chemically diverse metabolites. A separate aliquot of each experimental plasma sample was taken then pooled for the creation of “Client Matrix” (CMTRX) samples. These CMTRX samples were injected throughout the platform run and served as technical replicates, allowing variability in the quantitation of all consistently detected biochemicals to be determined and overall process variability and platform performance to be monitored. Extracts of all experimental and CMTRX samples were split for analysis on the GC/MS and LC/MS/MS platforms.
(§3) The CMTRX technical replicate samples were treated independently throughout the process as if they were study samples. All process samples (CMTRX, GROBs—a mixture of organic components used to assess GC column performance, process blanks, etc.) were spaced evenly among the injections for each day and all client samples were randomly distributed throughout each day's run. Data were collected over eight platform run days and thus, ‘block normalized’ by calculating the median values for each run-day block for each individual compound. […] Missing values (if any) were assumed to be below the level of detection for that biochemical with the instrumentation used and were imputed with the observed minimum for that particular biochemical.
Two parameters are typically evaluated when considering statistical significance, namely the p-value and the q-value. […] The q-value describes the false discovery rate; a low q-value (q≦0.10) is an indication of high confidence in a result. Because of the multiple testing occurring in the data sets produced by metabolomic studies, data is often evaluated for false positives.
(§4) Statistical analyses of the data were performed on natural log-transformed data to reduce the effect of any potential outliers in the data. T-test comparisons were calculated using the one or both of the statistical software analysis programs: Array Studio (Omicsoft, Inc) or ‘R’ from the Free Software Foundation, Inc.
(§5) For t-test comparisons, within each group: placebo, lurasidone and olanzapine, the early versus the late time point was compared (i.e., 4 days versus 6 weeks). In addition, both lurasidone and olanzapine were compared with placebo at the appropriate time point and then lurasidone was compared with olanzapine at both 4 days and 6 weeks.

glutamate = experiment: Metabolomic analysis of plasma samples: glutamate level; type: in vivo, human
Excerpt: as §1, §2, §3
A number of internal standards were added to each experimental and process standard sample just prior to injection into the mass spectrometers. A measure of the platform variability was determined by calculating the median relative standard deviation (RSD) for these internal standards. […] Because these standards were added to the samples immediately prior to injection into the instrument, this value reflects instrument variation. In addition, the median relative standard deviation (RSD) for the biochemicals that were consistently measured in the CMTRX represents the total variability within the process for the actual experimental samples and the variability in quantitation of the endogenous metabolites within these samples (Table 2).
Biochemical data were analyzed by ANOVA contrasts and a Two-way ANOVA.
as §4, §5

[1] = biological target: T1, noradrenaline α2C receptors (Homo sapiens, UniProt P18825); settings: reported; cited from earlier work
T1 sequence (P18825 1-462): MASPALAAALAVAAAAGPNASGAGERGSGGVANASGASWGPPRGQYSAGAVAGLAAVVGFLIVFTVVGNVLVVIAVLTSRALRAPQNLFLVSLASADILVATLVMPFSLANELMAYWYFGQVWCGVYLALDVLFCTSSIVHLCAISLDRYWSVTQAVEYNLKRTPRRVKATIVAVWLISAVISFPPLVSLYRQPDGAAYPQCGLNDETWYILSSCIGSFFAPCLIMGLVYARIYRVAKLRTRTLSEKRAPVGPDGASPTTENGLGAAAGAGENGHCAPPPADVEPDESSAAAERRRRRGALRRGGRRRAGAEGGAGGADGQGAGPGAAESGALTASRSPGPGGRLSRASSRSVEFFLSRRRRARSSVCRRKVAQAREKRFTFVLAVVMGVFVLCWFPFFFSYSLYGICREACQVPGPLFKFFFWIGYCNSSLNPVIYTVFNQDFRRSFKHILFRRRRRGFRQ

[2] = system: positive and negative symptoms of schizophrenia; settings: several placebo-controlled trials; cited from earlier work
histamine H1 = histamine H1 (Homo sapiens, UniProt P35367); settings: reported; cited from earlier work
5-HT2A = 5-HT2A (Homo sapiens, UniProt P28223); settings: reported; cited from earlier work
muscarinic M1 receptors = biological target: T2, muscarinic M1 receptors (Homo sapiens, UniProt P11229); settings: reported; cited from earlier work
T2 sequence (P11229 1-460): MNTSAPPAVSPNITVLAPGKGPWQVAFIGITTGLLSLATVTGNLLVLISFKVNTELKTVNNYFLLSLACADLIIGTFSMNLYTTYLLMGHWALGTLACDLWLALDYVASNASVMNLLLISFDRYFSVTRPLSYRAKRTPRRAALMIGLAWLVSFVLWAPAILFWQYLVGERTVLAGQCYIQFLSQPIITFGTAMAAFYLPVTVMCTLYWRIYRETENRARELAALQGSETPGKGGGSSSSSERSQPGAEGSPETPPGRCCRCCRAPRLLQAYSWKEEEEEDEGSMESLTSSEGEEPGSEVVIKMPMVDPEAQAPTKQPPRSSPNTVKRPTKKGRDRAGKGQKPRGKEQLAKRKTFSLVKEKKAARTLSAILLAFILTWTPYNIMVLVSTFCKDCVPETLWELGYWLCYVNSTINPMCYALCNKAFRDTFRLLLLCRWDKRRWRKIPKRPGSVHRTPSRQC

[3] = system: patient diagnosed schizophrenia; experiment: PANSS scoring, 6-week double-blind treatment; type: in vivo, human; settings: 6 weeks; treatment responders only; lurasidone 40 mg/d, olanzapine 15 mg/d, placebo; FIG. 1
Protocol: Positive and Negative Syndrome Scale (PANSS) was measured according to the procedures well-established in the art. Clinical interviews were conducted by qualified trained professionals. A patient diagnosed schizophrenia was rated from 1 to 7 on 30 different symptoms based in the interview. The 30 symptoms assessed were: (1) positive symptoms, i.e., delusions, conceptual disorganization, hallucinations, hyperactivity, grandiosity, suspiciousness/persecution and hostility; (2) negative symptoms, i.e., blunted affect, emotional withdrawal, poor rapport, passive/apathetic social withdrawal, difficulty in abstract thinking, lack of spontaneity and flow of conversation and stereotyped thinking; and (3) general psychopathology symptoms, i.e., somatic concern, anxiety, guilt feelings, tension, mannerism and posturing, depression, motor retardation, uncooperativeness, unusual thought content, disorientation, poor attention, lack of judgment and insight, disturbance of volition, poor impulse control, preoccupation and active social avoidance. […]
Prior to the baseline visit, subjects underwent a 3-7 day washout of their current antipsychotic medication and randomized to receive either lurasidone (40 mg per day), olanzapine (15 mg per day) or placebo for 6 weeks. Symptom improvement was assessed by the change in PANSS score (total and subscale scores) from baseline to study endpoint. […]

glycine = experiment: Metabolomic analysis: glycine level; design: species or system human; settings: in vivo
Excerpt: as §1, §2
(§6) The CMTRX technical replicate samples were treated independently throughout the process as if they were study samples. All process samples (CMTRX, GROBs—a mixture of organic components used to assess GC column performance, process blanks, etc.) were spaced evenly among the injections for each day and all client samples were randomly distributed throughout each day's run. […]

dopamine D2 = dopamine D2 (Homo sapiens, UniProt P14416); settings: reported; cited from earlier work
serotonin 5-HT1A = biological target: T3, serotonin 5-HT1A (Homo sapiens, UniProt P08908); settings: reported; cited from earlier work
T3 sequence (P08908 1-422): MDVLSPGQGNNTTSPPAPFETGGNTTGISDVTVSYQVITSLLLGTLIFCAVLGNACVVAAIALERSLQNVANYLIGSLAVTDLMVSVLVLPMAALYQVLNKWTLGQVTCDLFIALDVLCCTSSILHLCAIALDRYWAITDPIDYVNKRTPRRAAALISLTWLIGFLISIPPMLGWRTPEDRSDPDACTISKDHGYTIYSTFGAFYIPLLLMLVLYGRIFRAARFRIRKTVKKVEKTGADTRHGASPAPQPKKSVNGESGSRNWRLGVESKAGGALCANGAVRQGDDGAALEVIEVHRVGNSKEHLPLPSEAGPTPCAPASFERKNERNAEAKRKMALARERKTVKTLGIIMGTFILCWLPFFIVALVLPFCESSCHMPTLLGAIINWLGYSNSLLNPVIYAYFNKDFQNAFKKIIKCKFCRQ

5-HT7 = 5-HT7 (Homo sapiens, UniProt P34969); settings: reported; cited from earlier work
serine = experiment: Metabolomic analysis: serine level; design: species or system human; settings: in vivo
Excerpt: as §1, §2, §6

aspartate = experiment: Metabolomic analysis: aspartate level; design: species or system human; settings: in vivo
Excerpt: as §1, §2, §6

[4] = Total Sample of treatment responders, lurasidone 40 mg/d, olanzapine 15 mg/d, plasma
[5] = subgroup PANSS Negative Change at Week 6 ≦median change score
[6] = subgroup PANSS Positive Change at Week 6 >median change score
[7] = subgroup PANSS Positive Change at Week 6 ≦median change score
[8] = subgroup PANSS Total Change at Week 6 >median change score
[9] = subgroup PANSS Total Change at Week 6 ≦median change score

dopamine D2, sequence (P14416 whole entry): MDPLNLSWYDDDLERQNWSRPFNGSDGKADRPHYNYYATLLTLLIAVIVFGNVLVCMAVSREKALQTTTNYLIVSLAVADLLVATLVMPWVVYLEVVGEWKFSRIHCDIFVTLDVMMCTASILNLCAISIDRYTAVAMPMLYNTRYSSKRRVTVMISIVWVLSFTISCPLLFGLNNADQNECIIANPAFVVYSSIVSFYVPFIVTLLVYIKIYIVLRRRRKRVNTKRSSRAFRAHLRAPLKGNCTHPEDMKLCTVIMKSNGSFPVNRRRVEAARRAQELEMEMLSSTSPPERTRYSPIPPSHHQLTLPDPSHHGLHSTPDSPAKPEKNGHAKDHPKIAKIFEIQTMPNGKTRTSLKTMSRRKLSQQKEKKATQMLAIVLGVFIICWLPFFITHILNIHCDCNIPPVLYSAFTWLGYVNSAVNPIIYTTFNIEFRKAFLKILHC
5-HT2A, sequence (P28223 whole entry, species assumed): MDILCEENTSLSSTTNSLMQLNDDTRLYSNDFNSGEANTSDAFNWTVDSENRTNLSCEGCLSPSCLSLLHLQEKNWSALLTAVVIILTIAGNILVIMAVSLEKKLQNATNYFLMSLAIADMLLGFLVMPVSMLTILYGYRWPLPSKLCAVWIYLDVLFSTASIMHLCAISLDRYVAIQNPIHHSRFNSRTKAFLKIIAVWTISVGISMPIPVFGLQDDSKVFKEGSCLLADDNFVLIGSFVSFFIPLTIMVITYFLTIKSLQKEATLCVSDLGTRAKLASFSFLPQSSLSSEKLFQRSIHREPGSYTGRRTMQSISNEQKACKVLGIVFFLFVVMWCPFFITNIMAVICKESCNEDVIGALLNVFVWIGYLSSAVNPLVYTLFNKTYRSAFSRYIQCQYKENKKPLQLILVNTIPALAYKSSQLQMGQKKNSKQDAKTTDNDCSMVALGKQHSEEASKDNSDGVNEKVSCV
histamine H1, sequence (P35367 whole entry): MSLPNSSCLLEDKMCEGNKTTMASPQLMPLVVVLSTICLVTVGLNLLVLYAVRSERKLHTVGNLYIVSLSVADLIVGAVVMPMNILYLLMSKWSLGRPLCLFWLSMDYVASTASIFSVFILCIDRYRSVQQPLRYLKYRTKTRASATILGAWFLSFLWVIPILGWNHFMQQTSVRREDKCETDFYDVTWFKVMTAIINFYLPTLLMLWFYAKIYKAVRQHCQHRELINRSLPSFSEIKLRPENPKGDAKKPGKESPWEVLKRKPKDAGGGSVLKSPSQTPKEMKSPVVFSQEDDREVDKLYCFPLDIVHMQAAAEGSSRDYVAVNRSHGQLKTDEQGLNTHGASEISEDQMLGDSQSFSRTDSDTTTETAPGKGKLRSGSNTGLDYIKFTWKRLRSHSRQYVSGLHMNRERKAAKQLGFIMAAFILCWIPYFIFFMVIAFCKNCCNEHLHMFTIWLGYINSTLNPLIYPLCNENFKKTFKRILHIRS
5-HT7, sequence (P34969 whole entry, species assumed): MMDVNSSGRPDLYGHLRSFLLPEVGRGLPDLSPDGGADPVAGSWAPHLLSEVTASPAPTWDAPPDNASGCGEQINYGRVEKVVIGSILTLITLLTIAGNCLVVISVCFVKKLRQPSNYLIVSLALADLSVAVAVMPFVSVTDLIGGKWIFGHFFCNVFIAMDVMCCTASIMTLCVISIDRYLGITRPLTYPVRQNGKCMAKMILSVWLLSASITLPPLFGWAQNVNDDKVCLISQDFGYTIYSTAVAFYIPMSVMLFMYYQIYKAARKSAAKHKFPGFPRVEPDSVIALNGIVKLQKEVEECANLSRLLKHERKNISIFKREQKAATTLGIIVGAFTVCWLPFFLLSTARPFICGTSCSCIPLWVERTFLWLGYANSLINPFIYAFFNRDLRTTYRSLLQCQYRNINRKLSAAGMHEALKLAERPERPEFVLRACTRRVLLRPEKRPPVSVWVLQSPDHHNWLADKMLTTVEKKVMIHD

Cc1cc2c(s1)Nc1ccccc1N=C2N1CCN(C)CC1 [Olanzapine, olanzapine]
number of biochemicals significantly decreased (732 biochemicals): 46 | number of biochemicals significantly increased (732 biochemicals): 54 | share of biochemicals significantly changed (732 biochemicals): 14% | number of biochemicals whose serum levels were significantly changed (732 biochemicals): 100 | Glutamate Levels at Week 6, mean (SD) (glutamate; [4]): 1.00 (0.24) | Glutamate Levels at Week 6, mean (SD) (glutamate; subgroup PANSS Negative Change at Week 6 >median change score, *lurasidone vs. olanzapine P = 0.014, vs placebo P = 0.025): 0.97 (0.26) | Glutamate Levels at Week 6, mean (SD) (glutamate; [5]): 1.03 (0.23) | Glutamate Levels at Week 6, mean (SD) (glutamate; [6]): 1.02 (0.27) | Glutamate Levels at Week 6, mean (SD) (glutamate; [7]): 0.98 (0.22) | Glutamate Levels at Week 6, mean (SD) (glutamate; [8]): 1.01 (0.27) | Glutamate Levels at Week 6, mean (SD) (glutamate; [9]): 0.99 (0.26)

O=C1[C@@H]2[C@H]3CC[C@H](C3)[C@@H]2C(=O)N1C[C@@H]1CCCC[C@H]1CN1CCN(c2nsc3ccccc23)CC1 [Lurasidone]
affinity for noradrenaline α2C receptors [1]: high affinity | ameliorating the positive and negative symptoms of schizophrenia [2]: effective | affinity for histamine H1 (histamine H1): minimal to no affinity | affinity for 5-HT2A (5-HT2A): high affinity | affinity for muscarinic M1 receptors (muscarinic M1 receptors): minimal to no affinity | number of biochemicals significantly decreased (732 biochemicals): 14 | number of biochemicals significantly increased (732 biochemicals): 11 | share of biochemicals significantly changed (732 biochemicals): 3% | number of biochemicals whose serum levels were significantly changed (732 biochemicals): 25 | improvement in PANSS total, positive and negative subscores across treatment groups [3]: comparable | level of glycine upon treatment (glycine): increased | Glutamate Levels at Week 6, mean (SD) (glutamate; [4]): 1.12 (0.34) | overall glutamate level compared with the placebo group (glutamate; days 4 and weeks 6, treatment responders, FIG. 2): significantly greater | Glutamate Levels at Week 6, mean (SD) (glutamate; [5]): 1.00 (0.28) | Glutamate Levels at Week 6, mean (SD) (glutamate; [6]): 1.14 (0.41) | Glutamate Levels at Week 6, mean (SD) (glutamate; [7]): 1.09 (0.23) | Glutamate Levels at Week 6, mean (SD) (glutamate; [8]): 1.13 (0.38) | Glutamate Levels at Week 6, mean (SD) (glutamate; [9]): 1.09 (0.27) | glutamate level in responders with high improvement in negative symptoms compared with other responder groups (glutamate; week 6, PANSS negative change above median, FIG. 3): significantly higher increase; also recorded: significantly higher than all other responder groups | relation between levels of glutamate and change in PANSS negative subscore (glutamate; week 6, scatterplot FIG. 4): proportional | affinity for dopamine D2 (dopamine D2): high affinity | affinity for serotonin 5-HT1A (serotonin 5-HT1A): high affinity; also recorded: moderate affinity | affinity for 5-HT7 (5-HT7): high affinity | level of serine upon treatment (serine): increased | level of aspartate upon treatment (aspartate): increased

From patent US20140113912A1, “TREATMENT AND MANAGEMENT OF CNS DISORDERS” (priority 2011, published 2014)
